Patent publication US4565813A, “1,4-Thiazine derivatives” (Zenyaku Kogyo Kabushiki Kaisha, priority 1983, dated 1986)
Like-named read-outs stand apart in the source and are kept apart here.

How the values were obtained:
isolated atria = test: Contractile force of isolated atria; parameters: species or system guinea pig (male Hartley); details: Cavia porcellus; 50.0 μg/ml, isolated guinea pig atria; read-out: Maximum Contractile Force (increase)
Protocol: The pharmacological effects of the compound of the following general formula I will now be described: [drawing 9] wherein R1, R2 and R3 are as defined above. (1) The contractile force of isolated atria was tested according to the method of L. J. Macleod described in Pharmacological Experiments on Intact Preparations, pages 112-115 (1970). A 7-weeks-old male Hartley guinea pig (having a body weight of about 350 g) was killed by a blow on the head. The chest was opened and the heart was removed as quickly as possible and placed in Ringer-Locke solution (prepared by adding distilled water to 9.0 g of sodium chloride, 0.25 g of potassium chloride, 0.15 g of calcium chloride and 1.0 g of glucose so that the total amount was 1,000 ml) at room temperature. All other tissues was cut away until nothing was left except the atria. Threads were tied to each tip of the atria and the preparation thus obtained was mounted in Ringer-Locke solution at 30±1° C., through which a brisk stream of pure oxygen was bubbled. One thread was attached to a fixed pin in the Magnus' bath and the other to a force-displacement transducer connected to an electrical amplifier and recorder. When the rate and amplitude became constant, recording was started. After 1 minute, the solution of sample compound was injected and recording was conducted for 2 minutes. After completion of recording, the isolated atria was washed with Ringer-Locke solution until the rate and amplitude became constant. After 15 minutes, recording was started again.

coronary blood flow = test: Coronary-vasodilating action (Langendorff's method); parameters: species or system guinea pig (male Hartley); details: Cavia porcellus; for activation at 0.1 mg: dose 100 μg
Protocol: (3) The coronary-vasodilating effect was tested according to the method disclosed in Basic Lectures of Medicine Development, Volume V, Pharmacological Test Methods, Part 2, page 537 (1971). A 7-weeks-old male Hartley guinea pig (having a body weight of about 350 g) was used. And the measurement was carried out under a perfusion pressure of about 60 mmHg according to the Langendorff's method by using as a nutrient solution a Krebs' solution. The incubation temperature was 37° C.

[1] = tested on: systolic blood pressure and heart rate, rats; test: Effect on systolic blood pressure and heart rate (indirect tail-cuff method); format: in vivo, rat (male Wistar); details: 25 mg/kg p.o.
Protocol: Male Wister rats (having a body weight of about 350 g) were used. Systolic blood pressure and heart rate were measured in rats by indirect tail-cuff method, using a programmed electrosphymomanometer.

[2] = tested on: isolated papillary muscles; test: Contractile force of isolated papillary muscles; parameters: species or system cat (female); details: Felis catus, isolated cat papillary muscles, read-out: Maximum Contractile Force (increase); for activation at 10 µg/mL: 1.0 × 10^-5 g/ml
Protocol: (2) The contractile force of isolated papillary muscles was tested according to the method described in Basic Lectures of Medicine Development, Volume V, Pharmacological Test Methods, Part 2, page 535 (1971). A female cat (having a body weight of about 3.5 kg) was anaesthetized with ether-chloroform gas and exsanguinated. The chest of each cat was opened and the heart was excised, rinsed with Krebs-Henseleitsolution (prepared by adding distilled water to 6.92 g of sodium chloride, 0.35 g of calcium chloride, 0.29 g of magnesium sulfate, 0.16 g of mono-basic potassium phosphate, 2.1 g of sodium bicarbonate and 1.8 g of glucose so that the total amount was 1 l) and one or more small, thin papillary muscles from the right ventricule were dissected. Then papillary muscles were mounted in 20 ml Magnus' bath containing Krebs-Henseleit solution bubbled with oxygen gas at a temperature of 30±1° C. The papillary muscles were stimulated electrically at the rate of 2 beat/sec. and a voltage of 20% above threshold. The developed tension of the muscles was recorded isometrically on recorder by the use of force displacement tansducers.

platelet aggregation = test: Inhibition of platelet aggregation; format: cell-based, rat (male Wistar); details: Rattus norvegicus, 83.0 μg/ml
Protocol: (5) The inhibition of platelet aggregation was determined according to the method of Yamazaki [Hiroo Yamazaki, Clinical Inspections, 22, (9) 935-943 (1978)]. Eleven-weeks-old male Wistar rats (having a body weight of about 350 g) were used. Blood was drawn by venupuncture in the […]. Nine fold volume of blood was drawn, with mixing, into a syringe containing one volume of 3.1% (W/V) sodium citrate. Platelet-rich-plasma (PRP) was collected as the supernatant after centrifuging the citrated blood at 1,000 rpm for 10 min. Platelet-poor-plasma (PPP) was the resulting supernatant after the residual citrated blood was additionally centrifuged at 3,000 rpm for 10 min. Each 210 μl aliquot of PPP and PRP was placed in cuvette and stirred at 37° C. in aggregometer. The aggregation reactions were determined by changes in light transmissions. A 20 μl sample was injected into PRP in the aggregometer, and 1-2 min. later, a 20 μl aggregation stimulant was injected. Aggregation pattern and maximal aggregation rate of each sample were compared with those of control. 100 μM of ADP (adenosine-5'-diphosphate or 100 μg/ml of collagen was used as the aggregation stimulant. The obtained results are shown in Table 5.

[3] = tested on: smooth muscle of bronchus; test: Bronchodilation effect (tracheal ring chain); parameters: species or system guinea pig (male Hartley)
Protocol: (7) The bronchodilation effect was tested according to the method of L. J. Macleod in Pharmacological Experiments on Intact Preparations, Pages 100-103 (1970). A 7-weeks-old, male Hartley guinea pig (having a body weight of about 350 g) was killed by a blow on the head and cutting the throat. The trachea was dissected out and transferred into Krebs' solution. The excessive tissue was removed and the trachea was cut transversely with great care not to damage smooth muscle, to form at least 5 tracheal rings which are tied together so as to form chain. One thread was attached to a fixed pin in the Magnus' bath and the other, to a force-displacement transducer connected to an electrical amplifier and recorder. Experiments with this preparation were performed at 37±1° C. in Krebs' solution through which O2 plus 5% CO2 was bubbled. The sample compound was injected and the recording was conducted for 4 minutes. After completion of the recording, the sample was washed out with Krebs' solution until the base line became stable. After 30 to 50 minutes, the recording was started again.

[4] = tested on: ventricular muscle and heart rate, anaesthetized dog; test: Contractile force of ventricular muscle and heart rate of anaesthetized dog; format: in vivo, dog (male); details: for Heart Rate (up): infused i.v. 320 μg/kg/minute, anaesthetized dog; for Contractile Force of Ventricular Muscles (increase): infused i.v. (left femoral vein) 320 μg/kg/minute until maximum inotropic effect
Protocol: (4) The contractile force of ventricular muscle and heart rate in anaesthetized dog was tested according to the method described in Basic Lectures of Medicine Development, Volume V, Pharmacological Test Methods, Part 2, page 544 (1971). A male dog (having a body weight of about 12-14 kg) was anaesthetized with 40 mg/kg body weight of pentobarbital sodium (i.p.). Supplemental dose of pentobarbital was administered whenever necessary. An intra-tracheal cannula was inserted and ventilation was carried out by means of Harvard constant-volume, positive pressure pump using room air. The chest was opened by a midline incision and the heart was suspended in the pericardial cradle. The contratile force of the myocardium was measured by means of Walton-Brodie type strain-gauge arch sutured onto the left ventricle. Systemic blood pressure was measured from the left femoral artery by a pressure transducer and heart rate was calculated by blood pressure pulses. Sample compounds were infused into the left femoral vein at a rate of 320 μg/kg/minute until a maximum inotropic effect is obtained.

[5] = Acute toxicity (Litchfield-Wilcoxon method); details: mouse, in vivo, iv; tail vein, 6-weeks-old male ddY mice
Protocol: The acute toxicity of the compound of the general formula I was determined according to the Litchfield-Wilcoxon method [J. Pharm. Exp. Ther., 96, 99 (1949)] using 6-weeks-old male ddY mice (having a body weight of 19 to 24 g) while administrating the sample compound in the tail vein.

[6] = 0.5 h, dose 500 μg, 30 minutes, read-out: Coronary Blood Flow Increase Ratio, 30 Minutes after Administration
[7] = dose 500 μg, read-out: Coronary Blood Flow Increase Ratio, Maximum Increase Ratio of Sample
[8] = read-out: Coronary Blood Flow Increase Ratio, Maximum Increase Ratio of Sample

Structure (SMILES)	activation at 50 µg/mL (isolated atria) [%]	activation at 0.5 mg (coronary blood flow; [6]) [%]	activation at 0.5 mg (coronary blood flow; [7]) [%]	Blood Pressure (systolic), direction of change [1]	Heart Rate (up) [1] [%]	other results
CC1=C(C2CCNCC2)SCC(=O)N1 [By-product, 5-methyl-6-(4-piperidinyl)-2H-1,4-thiazin-3(4H)-one]	5	5	12	–	–	–
Cc1[nH]c(=O)c(C#N)cc1-c1ccncc1 [Milrinone]	–	–	–	decrease	51	–
CC1=C(c2ccncc2)SCC(=O)N1C [R1 = CH3, R2 = CH3, R3 = H, 4,5-dimethyl-6-(4-pyridinyl)-2H-1,4-thiazin-3-one]	18	–	–	–	–	activation at 0.1 mg (coronary blood flow; 0.5 h, 30 minutes, read-out: Coronary Blood Flow Increase Ratio, 30 Minutes after Administration): 8%; activation at 0.1 mg (coronary blood flow; [8]): 28%
CC1=C(c2ccncc2)SCC(=O)N1 [R1 = H, R2 = CH3, R3 = H, 5-methyl-6-(4-pyridinyl)-2H-1,4-thiazin-3(4H)-one]	40	10	71	decrease	19	activation at 10 µg/mL [2]: 61%; activation at 1 µg/mL ([2]; 1.0 × 10^-6 g/ml): 27%; inhibition at 83 µg/mL (platelet aggregation; stimulant 100 μM ADP, read-out: Aggregation Inhibition Ratio, ADP): 80%; inhibition at 83 µg/mL (platelet aggregation; stimulant 100 μg/ml collagen, read-out: Aggregation Inhibition Ratio, Collagen): 100%; Influence of Smooth Muscle of Bronchus (relaxed by) [3]: ≥ 0.13 m/m; Heart Rate (up) [4]: 30%; Contractile Force of Ventricular Muscles (increase) [4]: 170%; LD50 [5]: 165 to 200 mg/kg
O=NO [Sodium nitrite, reference compound]	–	–	–	–	–	activation at 0.5 mg (coronary blood flow; 0.5 h, read-out: Coronary Blood Flow Increase Ratio, 30 Minutes after Administration): 5%; activation at 0.5 mg (coronary blood flow; [8]): 20%
Cn1c(=O)c2[nH]cnc2n(C)c1=O [Theophylline, reference compound]	–	-10	32	increase	29	–
Nc1cc(-c2ccncc2)c[nH]c1=O [amrinone, reference compound]	–	–	–	–	–	activation at 100 µg/mL ([2]; 1.0 × 10^-4 g/ml): 77%; activation at 10 µg/mL [2]: 17%; Heart Rate (up) [4]: 25%; Contractile Force of Ventricular Muscles (increase) [4]: 25%
CC(C)NCC(O)c1ccc(O)c(O)c1 (centres unmarked) [isoproterenol, reference compound]	40	–	–	–	–	–
